Data: ChEMBL document CHEMBL3885861, “Open TG-GATES”

Organism: Rattus norvegicus
Assay: Open TG-GATES - Regimen: Single
Type: toxicity, organism-based, Sprague-Dawley
Design: regimen Single, gender Male, age 6 weeks
Settings: in vivo, po, 10 mg/kg, route gavage, dose level Low; for APTT / Bas / Eos / Fbg / Hb / Ht / Lym / MCH / MCHC / MCV / Mono / Neu / PT / Plat / RBC / Ret / WBC: tissue Blood; for KIDNEY_L / KIDNEY_R / KIDNEY_TOTAL: tissue Kidney; for LIVER: tissue Liver; for A/G / ALP / ALT / AST / BUN / CRE / Ca / Cl / DBIL / GLC / IP / K / LDH / Na / PL / RALB / TBIL / TC / TG / TP / gamma-GTP: tissue Plasma

`CC1=C(/C=C/C(C)=C/C=C/C(C)=C/CO)C(C)(C)CCC1` [RETINOL] showed a TERMINAL_BW (3 h) of 201.8 g, an APTT (3 h) of 21.9 s and a Bas (3 h) of 0%. The Eos (3 h) was 0.8%, the Fbg (3 h) was 307.4 mg/dL and the Hb (3 h) was 13.1 g/dL. The Ht (3 h) was 37.7%, the Lym (3 h) was 81.4% and the MCH (3 h) was 21.5 pg. It also gave an MCHC (3 h) of 34.6%, an MCV (3 h) of 62.2 fL and a Mono (3 h) of 2.6%. For the same molecule, the Neu (3 h) was 14.8%, the PT (3 h) was 15.9 s and the Plat (3 h) was 124.2 x10_4/uL. The RBC (3 h) was 606.4 x10_4/ul, the Ret (3 h) was 8.8% and the WBC (3 h) was 95.9 x10_2/uL. The KIDNEY_L (3 h) was 0.9 g, the KIDNEY_R (3 h) was 0.9 g and the KIDNEY_TOTAL (3 h) was 1.8 g. For the same molecule, the LIVER (3 h) was 9.3 g, the A/G (3 h) was 1.3 and the ALP (3 h) was 1940 IU/L. The ALT (3 h) was 41.2 IU/L, the AST (3 h) was 75.2 IU/L and the BUN (3 h) was 13.4 mg/dL. The CRE (3 h) was 0.1 mg/dL, the Ca (3 h) was 10.8 mg/dL and the Cl (3 h) was 106.6 meq/L. For the same molecule, the DBIL (3 h) was 0 mg/dL, the GLC (3 h) was 171.6 mg/dL and the IP (3 h) was 8.6 mg/dL. The K (3 h) was 4.1 meq/L, the LDH (3 h) was 253.6 IU/L and the Na (3 h) was 141.6 meq/L. It also gave a PL (3 h) of 160.6 mg/dL, an RALB (3 h) of 3.2 g/dL and a TBIL (3 h) of 0.006 mg/dL. It also gave a TC (3 h) of 81.2 mg/dL, a TG (3 h) of 123.4 mg/dL and a TP (3 h) of 5.6 g/dL. The gamma-GTP (3 h) was 2.2 IU/L, the TERMINAL_BW (6 h) was 200 g and the APTT (6 h) was 21 s. The Bas (6 h) was 0%, the Eos (6 h) was 1% and the Fbg (6 h) was 312 mg/dL. It also gave a Hb (6 h) of 13.5 g/dL, a Ht (6 h) of 39.4% and a Lym (6 h) of 80.4%. The MCH (6 h) was 21.4 pg, the MCHC (6 h) was 34.3% and the MCV (6 h) was 62.3 fL. It also gave a Mono (6 h) of 2.6%, a Neu (6 h) of 15.4% and a PT (6 h) of 15.6 s. It also gave a Plat (6 h) of 119.1 x10_4/uL, an RBC (6 h) of 632.2 x10_4/ul and a Ret (6 h) of 8.1%. It also gave a WBC (6 h) of 81.2 x10_2/uL, a KIDNEY_L (6 h) of 0.9 g and a KIDNEY_R (6 h) of 0.9 g. It also gave a KIDNEY_TOTAL (6 h) of 1.9 g, an LIVER (6 h) of 8.6 g and an A/G (6 h) of 1.3. The ALP (6 h) was 1760 IU/L, the ALT (6 h) was 35.8 IU/L and the AST (6 h) was 69.2 IU/L. It also gave a BUN (6 h) of 9.4 mg/dL, a CRE (6 h) of 0.1 mg/dL and a Ca (6 h) of 11 mg/dL. The Cl (6 h) was 107.4 meq/L, the DBIL (6 h) was 0.008 mg/dL and the GLC (6 h) was 180 mg/dL. It also gave an IP (6 h) of 10.3 mg/dL, a K (6 h) of 4.3 meq/L and an LDH (6 h) of 223 IU/L. For the same molecule, the Na (6 h) was 142.8 meq/L, the PL (6 h) was 143.8 mg/dL and the RALB (6 h) was 3.1 g/dL. The TBIL (6 h) was 0.016 mg/dL, the TC (6 h) was 74.4 mg/dL and the TG (6 h) was 98.4 mg/dL. For the same molecule, the TP (6 h) was 5.4 g/dL, the gamma-GTP (6 h) was 0.8 IU/L and the TERMINAL_BW (9 h) was 196.8 g. It also gave an APTT (9 h) of 21.8 s, a Bas (9 h) of 0% and an Eos (9 h) of 0.6%. For the same molecule, the Fbg (9 h) was 296.8 mg/dL, the Hb (9 h) was 13.2 g/dL and the Ht (9 h) was 38.3%. The Lym (9 h) was 78%, the MCH (9 h) was 21.6 pg and the MCHC (9 h) was 34.4%. It also gave an MCV (9 h) of 62.9 fL, a Mono (9 h) of 2.4% and a Neu (9 h) of 18.4%. It also gave a PT (9 h) of 15.6 s, a Plat (9 h) of 128.6 x10_4/uL and an RBC (9 h) of 610.2 x10_4/ul. It also gave a Ret (9 h) of 7.6%, a WBC (9 h) of 92.3 x10_2/uL and a KIDNEY_L (9 h) of 0.9 g. The KIDNEY_R (9 h) was 0.9 g, the KIDNEY_TOTAL (9 h) was 1.8 g and the LIVER (9 h) was 7.8 g. The A/G (9 h) was 1.3, the ALP (9 h) was 1939.6 IU/L and the ALT (9 h) was 34.8 IU/L. For the same molecule, the AST (9 h) was 70.6 IU/L, the BUN (9 h) was 9.6 mg/dL and the CRE (9 h) was 0.1 mg/dL. The Ca (9 h) was 10.9 mg/dL, the Cl (9 h) was 107.4 meq/L and the DBIL (9 h) was 0.004 mg/dL. For the same molecule, the GLC (9 h) was 187 mg/dL, the IP (9 h) was 10.6 mg/dL and the K (9 h) was 4 meq/L. The LDH (9 h) was 242.8 IU/L, the Na (9 h) was 141.4 meq/L and the PL (9 h) was 127.4 mg/dL. It also gave an RALB (9 h) of 3 g/dL, a TBIL (9 h) of 0.012 mg/dL and a TC (9 h) of 69.2 mg/dL. It also gave a TG (9 h) of 50.2 mg/dL, a TP (9 h) of 5.3 g/dL and a gamma-GTP (9 h) of 2.8 IU/L. For the same molecule, the TERMINAL_BW (24 h) was 208.4 g, the APTT (24 h) was 21.5 s and the Bas (24 h) was 0%. It also gave an Eos (24 h) of 1%, a Fbg (24 h) of 273.4 mg/dL and a Hb (24 h) of 13.2 g/dL. The Ht (24 h) was 38.4%, the Lym (24 h) was 80.2% and the MCH (24 h) was 21.4 pg. The MCHC (24 h) was 34.5%, the MCV (24 h) was 62.2 fL and the Mono (24 h) was 3.2%. For the same molecule, the Neu (24 h) was 15%, the PT (24 h) was 16.2 s and the Plat (24 h) was 123.1 x10_4/uL. The RBC (24 h) was 618 x10_4/ul, the Ret (24 h) was 7.5% and the WBC (24 h) was 81 x10_2/uL. The KIDNEY_L (24 h) was 1 g, the KIDNEY_R (24 h) was 1 g and the KIDNEY_TOTAL (24 h) was 2 g. It also gave an LIVER (24 h) of 9.8 g, an A/G (24 h) of 1.4 and an ALP (24 h) of 1455.4 IU/L. It also gave an ALT (24 h) of 44.6 IU/L, an AST (24 h) of 78.4 IU/L and a BUN (24 h) of 16.8 mg/dL. The CRE (24 h) was 0.2 mg/dL, the Ca (24 h) was 10.6 mg/dL and the Cl (24 h) was 106.8 meq/L. It also gave a DBIL (24 h) of 0.002 mg/dL, a GLC (24 h) of 187.4 mg/dL and an IP (24 h) of 6.9 mg/dL. For the same molecule, the K (24 h) was 4.5 meq/L, the LDH (24 h) was 318.8 IU/L and the Na (24 h) was 141.6 meq/L. The PL (24 h) was 135.2 mg/dL, the RALB (24 h) was 3.1 g/dL and the TBIL (24 h) was 0.002 mg/dL. It also gave a TC (24 h) of 65 mg/dL, a TG (24 h) of 114.6 mg/dL and a TP (24 h) of 5.4 g/dL. It also gave a gamma-GTP (24 h) of 1.6 IU/L.
